Earlier results on two compounds are cited in US20150101082A1, “PROCESSING SEEDS BY COLD PLASMA TREATMENT TO REDUCE AN APPARENT CONTACT ANGLE OF SEEDS COAT SURFACE” (priority 2012, published 2015).

Series [1] relates to mice. To be noted: inhalation, 7 hours.
Series [2] relates to mice. To be noted: oral.
Series [3] has as its system rats. To be noted: oral.

The term LC50 denotes the concentration that kills 50% of the test population. In the case of `Nc1ccccc1` [Aniline], in series [1], the LC50 is 175 ppm.

Usually LD50 stands for the dose at which mortality reaches 50%. As to `NN` [Hydrazine], the 50% lethal dose (LD50) in series [2] and in series [3] was roughly 60 mg/kg throughout.
